Experimental findings from paper PMC12029531, “Selenium in Action: Exploring the Biological Wonders of Hydroselenite Salts” (Molecules, 2025) are described below.

This data set is described as follows: Water solubility by 1H-qNMR in D2O. The settings on record: 298 K. Format: physicochemical.

For `COc1cc(Cc2cnc(N)nc2N)cc(OC)c1OC` [AB-2, trimethoprim], the “Water Solubility” value is 284 µg/mL.

Take `Nc1ccc(S(=O)(=O)Nc2ncccn2)cc1` [AB-4, sulfadiazine]: the “Water Solubility” value worked out at 112 µg/mL.

As for `NNC(=O)c1ccncc1` [AB-5, isoniazid], the “Water Solubility” value worked out at 5350 µg/mL.
